Data from PMC6208296, “Redox regulation of pyruvate kinase M2 by cysteine oxidation and S-nitrosation” (Biochemical Journal, 2018).
Like-named read-outs stand apart in the source and are kept apart here.

Experiments:
Assay type in all cases: biochemical
M2PYK [1] = biological target: T1, M2PYK (Homo sapiens, UniProt P14618); experiment: PYK enzyme activity assay, dose response with and without DTT and Ser
T1 construct: gene PKM; recombinant His-tagged WT M2 isoform

M2PYK [2] = biological target: T1, M2PYK; experiment: enzyme activity assay, competition of activator Ser with inhibitors Ala and Phe
M2PYK [3] = biological target: T1, M2PYK; experiment: LDH-coupled enzyme assay with and without F-1,6-BP; protection from S-nitrosation (biotin switch)

T1 sequence (P14618 2-531): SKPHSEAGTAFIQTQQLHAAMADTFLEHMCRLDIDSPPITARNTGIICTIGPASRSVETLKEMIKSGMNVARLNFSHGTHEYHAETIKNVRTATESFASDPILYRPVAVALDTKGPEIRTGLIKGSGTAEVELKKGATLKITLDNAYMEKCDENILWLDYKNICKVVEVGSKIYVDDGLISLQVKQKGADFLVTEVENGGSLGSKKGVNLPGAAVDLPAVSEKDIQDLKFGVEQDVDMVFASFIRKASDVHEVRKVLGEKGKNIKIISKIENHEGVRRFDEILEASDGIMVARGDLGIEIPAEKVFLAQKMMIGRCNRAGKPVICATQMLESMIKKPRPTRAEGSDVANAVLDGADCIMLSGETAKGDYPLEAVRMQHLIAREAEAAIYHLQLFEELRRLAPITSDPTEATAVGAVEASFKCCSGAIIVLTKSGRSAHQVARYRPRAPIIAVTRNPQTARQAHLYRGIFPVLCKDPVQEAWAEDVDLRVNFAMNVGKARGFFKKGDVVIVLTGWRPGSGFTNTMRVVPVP

C[C@H](N)C(=O)O [L-alanine]
IC50 (M2PYK [1]; read-out: IC50): 45 µM

N[C@@H](Cc1ccccc1)C(=O)O [L-phenylalanine]
IC50 (M2PYK [1]): 57 µM

N[C@@H](CO)C(=O)O [Ser]
enzyme activity assay, competition of activator Ser with inhibitors Ala and Phe (M2PYK [2]): Increasing Ser concentration further reduces the inhibitory effect of Ala which is expected as Ala and Ser compete

O=P(O)(O)OC[C@H]1OC(O)(COP(=O)(O)O)[C@@H](O)[C@@H]1O (stereo partly shown) [fructose 1,6-bisphosphate]
LDH-coupled enzyme assay with and without F-1,6-BP; protection from S-nitrosatio (M2PYK [3]): M2PYK complexes with FBP and Phe stabilise M2PYK in a tetrameric state and reduce the amount of nitrosation
